According to US20250179078A1, “INHIBITORS OF NLRP3” (PTC THERAPEUTICS, INC., priority 2022, published 2025):

What follows are compounds tested against T1, NLRP3 (Homo sapiens, UniProt Q96P20) (assay: IL-1β Secretion Assay (NLRP3-dependent IL1β secretion in THP1 cells)). Conditions: PMA-differentiated THP-1 cells; compounds incubated 20 h; 2.5 μM Nigericin 3 h; HTRF IL-1β readout; read-out: IC50 IL-1β Inhibition.
T1 construct: host or cells: THP-1 cells differentiated with PMA
Format: cell-based
Procedure, shortened: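 IL-1β in conditioned media, measured by HTRF after 3 h 2.5 μM nigericin stimulation, gave % inhibition fitted logistically for IC50. Before that, PMA-differentiated (100 ng/mL, 24 h) THP-1 cells were preincubated 20 h with 7 compound concentrations (3-fold serial, DMSO 1:200).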

T1 sequence (Q96P20 whole entry): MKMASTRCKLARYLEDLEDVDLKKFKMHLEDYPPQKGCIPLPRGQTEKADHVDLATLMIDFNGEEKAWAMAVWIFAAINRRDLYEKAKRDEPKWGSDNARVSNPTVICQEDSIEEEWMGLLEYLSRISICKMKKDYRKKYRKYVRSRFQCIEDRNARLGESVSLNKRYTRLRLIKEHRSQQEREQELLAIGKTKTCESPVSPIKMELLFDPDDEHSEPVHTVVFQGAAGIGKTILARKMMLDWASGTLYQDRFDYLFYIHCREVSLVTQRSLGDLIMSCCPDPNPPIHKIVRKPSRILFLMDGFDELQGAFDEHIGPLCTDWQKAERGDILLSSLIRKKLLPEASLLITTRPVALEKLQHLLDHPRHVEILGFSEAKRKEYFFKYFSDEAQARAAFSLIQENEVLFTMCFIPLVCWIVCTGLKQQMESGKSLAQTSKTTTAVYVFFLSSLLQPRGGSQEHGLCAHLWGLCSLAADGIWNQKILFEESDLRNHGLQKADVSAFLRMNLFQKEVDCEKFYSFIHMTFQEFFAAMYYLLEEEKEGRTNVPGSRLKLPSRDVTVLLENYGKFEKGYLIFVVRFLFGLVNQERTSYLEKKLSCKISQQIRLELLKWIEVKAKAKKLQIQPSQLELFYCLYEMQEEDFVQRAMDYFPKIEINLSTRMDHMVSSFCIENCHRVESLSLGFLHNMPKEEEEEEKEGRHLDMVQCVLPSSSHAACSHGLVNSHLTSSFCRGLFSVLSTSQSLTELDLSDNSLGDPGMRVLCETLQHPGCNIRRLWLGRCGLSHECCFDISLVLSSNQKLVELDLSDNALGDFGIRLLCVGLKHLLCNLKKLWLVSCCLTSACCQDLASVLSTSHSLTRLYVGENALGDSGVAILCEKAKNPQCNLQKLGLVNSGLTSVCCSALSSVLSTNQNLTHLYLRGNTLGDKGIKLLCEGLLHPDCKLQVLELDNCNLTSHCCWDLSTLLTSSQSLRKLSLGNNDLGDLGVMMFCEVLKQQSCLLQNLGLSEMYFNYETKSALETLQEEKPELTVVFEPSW

Row | SMILES | IC50
1 | O=C1NCCC1Nc1nnc(-c2ccc(C(F)(F)F)cc2OC(F)(F)F)c2cncn12 (centres unmarked) [Compound 256, 3-({1-[2-(trifluoromethoxy)-4-(trifluoromethyl)phenyl]imidazo[1,5-d][1,2,4]triazin-4-yl}amino)pyrrolidin-2-one] | < 1 nM
2 | OC[C@H]1C[C@@H](Nc2nnc(-c3ccc(C(F)(F)F)cc3C(F)(F)F)c3cncn23)C1 [Compound 257, [(1s,3s)-3-({1-[2,4-bis(trifluoromethyl)phenyl]imidazo[1,5-d][1,2,4]triazin-4-yl}amino)cyclobutyl]methanol] | 1 to 10 nM
3 | OCCN1CCC[C@@H](Nc2nnc(-c3ccc(OC(F)F)cc3OC(F)(F)F)c3cncn23)C1 [Compound 258, 2-[(3R)-3-({1-[4-(difluoromethoxy)-2-(trifluoromethoxy)phenyl]imidazo[1,5-d][1,2,4]triazin-4-yl}amino)piperidin-1-yl]ethan-1-ol] | 1 to 10 nM
4 | CC(Nc1nnc(-c2ccc(OC(F)F)cc2OC(F)(F)F)c2cncn12)c1cccc(O)c1 (centres unmarked) [Compound 259] | < 1 nM
5 | O=C1NCCC1Nc1nnc(-c2ccc(OC(F)F)cc2OC(F)(F)F)c2cncn12 (centres unmarked) [Compound 260, 3-({1-[4-(difluoromethoxy)-2-(trifluoromethoxy)phenyl]imidazo[1,5-d][1,2,4]triazin-4-yl}amino)pyrrolidin-2-one] | 1 to 10 nM
6 | CCN1CCC[C@@H](Nc2nnc(-c3ccc(C(F)(F)F)cc3CC(F)(F)F)c3cncn23)C1 [Compound 261, N-[(3R)-1-ethylpiperidin-3-yl]-1-[2-(2,2,2-trifluoroethyl)-4-(trifluoromethyl)phenyl]imidazo[1,5-d][1,2,4]triazin-4-amine] | < 1 nM
7 | O[C@H]1CCC[C@@H](Nc2nnc(-c3ccc(C(F)(F)F)cc3CC(F)(F)F)c3cncn23)C1 [Compound 262, (1S,3R)-3-({1-[2-(2,2,2-trifluoroethyl)-4-(trifluoromethyl)phenyl]imidazo[1,5-d][1,2,4]triazin-4-yl}amino)cyclohexan-1-ol] | < 1 nM
8 | C[C@]1(O)C[C@@H](Nc2nnc(-c3ccc(C(F)(F)F)cc3CC(F)(F)F)c3cncn23)C1 [Compound 263, (1s,3s)-1-methyl-3-({1-[2-(2,2,2-trifluoroethyl)-4-(trifluoromethyl)phenyl]imidazo[1,5-d][1,2,4]triazin-4-yl}amino)cyclobutan-1-ol] | < 1 nM
9 | OC[C@H]1C[C@@H](Nc2nnc(-c3ccc(C(F)(F)F)cc3CC(F)(F)F)c3cncn23)C1 [Compound 264] | < 1 nM
10 | O=C1NCCC1Nc1nnc(-c2ccc(C(F)(F)F)cc2CC(F)(F)F)c2cncn12 (centres unmarked) [Compound 265, 3-({1-[2-(2,2,2-trifluoroethyl)-4-(trifluoromethyl)phenyl]imidazo[1,5-d][1,2,4]triazin-4-yl}amino)pyrrolidin-2-one] | < 1 nM
11 | CC(Nc1nnc(-c2ccc(C(F)(F)F)cc2CC(F)(F)F)c2cncn12)c1cccc(O)c1 (centres unmarked) [Compound 266] | < 1 nM
12 | FC(F)(F)Cc1cc(C(F)(F)F)ccc1-c1nnc(Nc2cc[nH]n2)n2cncc12 [Compound 267, N-(1H-pyrazol-3-yl)-1-[2-(2,2,2-trifluoroethyl)-4-(trifluoromethyl)phenyl]imidazo[1,5-d][1,2,4]triazin-4-amine] | 1 to 10 nM
13 | COc1ccc(-c2nnc(N[C@@H]3CCOC[C@H]3O)n3cncc23)c(OC(F)F)c1 [Compound 268, (3S,4R)-4-({1-[2-(difluoromethoxy)-4-methoxyphenyl]imidazo[1,5-d][1,2,4]triazin-4-yl}amino)oxan-3-ol] | 1 to 10 nM
14 | COc1ccc(-c2nnc(NC3CCNC3=O)n3cncc23)c(OC(F)F)c1 (centres unmarked) [Compound 269, 3-({1-[2-(difluoromethoxy)-4-methoxyphenyl]imidazo[1,5-d][1,2,4]triazin-4-yl}amino)pyrrolidin-2-one] | 1 to 10 nM
15 | COc1ccc(-c2nnc(N[C@@H]3CCCC[C@H]3O)n3cncc23)c(OC(F)F)c1 [Compound 270, (1R,2R)-2-({1-[2-(difluoromethoxy)-4-methoxyphenyl]imidazo[1,5-d][1,2,4]triazin-4-yl}amino)cyclohexan-1-ol] | 1 to 10 nM
16 | CCN1CCC[C@@H](Nc2nnc(-c3ccc(C(F)(F)F)cc3C(F)(F)F)c3cncn23)C1 [Compound 271, 1-[2,4-bis(trifluoromethyl)phenyl]-N-[(3R)-1-ethylpiperidin-3-yl]imidazo[1,5-d][1,2,4]triazin-4-amine] | < 1 nM
17 | CN1CCCC(Nc2nnc(-c3ccc(C(F)(F)F)cc3C(F)(F)F)c3cncn23)C1=O (centres unmarked) [Compound 272, 3-({1-[2,4-bis(trifluoromethyl)phenyl]imidazo[1,5-d][1,2,4]triazin-4-yl}amino)-1-methylpiperidin-2-one] | 1 to 10 nM
18 | O[C@@H]1COCC[C@H]1Nc1nnc(-c2ccc(C(F)(F)F)cc2C(F)(F)F)c2cncn12 [Compound 273, (3S,4R)-4-({1-[2,4-bis(trifluoromethyl)phenyl]imidazo[1,5-d][1,2,4]triazin-4-yl}amino)oxan-3-ol] | 1 to 10 nM

Row | SMILES | IC50
19 | O[C@H]1CCOC[C@@H]1Nc1nnc(-c2ccc(C(F)(F)F)cc2C(F)(F)F)c2cncn12 [Compound 274, (3S,4S)-3-({1-[2,4-bis(trifluoromethyl)phenyl]imidazo[1,5-d][1,2,4]triazin-4-yl}amino)oxan-4-ol] | 10 to 100 nM
20 | O[C@H]1CC[C@@H](Nc2nnc(-c3ccc(C(F)(F)F)cc3C(F)(F)F)c3cncn23)CC1 [Compound 275, (1s,4s)-4-({1-[2,4-bis(trifluoromethyl)phenyl]imidazo[1,5-d][1,2,4]triazin-4-yl}amino)cyclohexan-1-ol] | 10 to 100 nM
21 | O=C1NCCCC1Nc1nnc(-c2ccc(C(F)(F)F)cc2C(F)(F)F)c2cncn12 (centres unmarked) [Compound 276, 3-({1-[2,4-bis(trifluoromethyl)phenyl]imidazo[1,5-d][1,2,4]triazin-4-yl}amino)piperidin-2-one] | 10 to 100 nM
22 | COc1ccc(-c2nnc(N[C@@H]3C[C@@H](F)CN(C)C3)n3cncc23)c(CC(F)(F)F)c1 [Compound 277, N-[(3R,5R)-5-fluoro-1-methylpiperidin-3-yl]-1-[4-methoxy-2-(2,2,2-trifluoroethyl)phenyl]imidazo[1,5-d][1,2,4]triazin-4-amine] | 1 to 10 nM
23 | COc1ccc(-c2nnc(N[C@@H]3CCCN(CCO)C3)n3cncc23)c(CC(F)(F)F)c1 [Compound 278, 2-[(3R)-3-({1-[4-methoxy-2-(2,2,2-trifluoroethyl)phenyl]imidazo[1,5-d][1,2,4]triazin-4-yl}amino)piperidin-1-yl]ethan-1-ol] | < 1 nM
24 | Cc1ncn2c(N[C@@H]3CCCN(C)C3)nnc(-c3ccc(C(F)(F)F)cc3CC(F)(F)F)c12 [Compound 279, 8-methyl-N-[(3R)-1-methylpiperidin-3-yl]-1-[2-(2,2,2-trifluoroethyl)-4-(trifluoromethyl)phenyl]imidazo[1,5-d][1,2,4]triazin-4-amine] | < 1 nM
25 | Cc1ncn2c(N[C@@H]3CCCC[C@H]3O)nnc(-c3ccc(C(F)(F)F)cc3CC(F)(F)F)c12 [Compound 280, (1R,2R)-2-({8-methyl-1-[2-(2,2,2-trifluoroethyl)-4-(trifluoromethyl)phenyl]imidazo[1,5-d][1,2,4]triazin-4-yl}amino)cyclohexan-1-ol] | 1 to 10 nM
26 | COc1ccc(-c2nnc(N[C@@H]3CCCN(C)C3)n3cncc23)c(C(F)(F)C(F)(F)F)c1 [Compound 281, 1-[4-methoxy-2-(pentafluoroethyl)phenyl]-N-[(3R)-1-methylpiperidin-3-yl]imidazo[1,5-d][1,2,4]triazin-4-amine] | 1 to 10 nM
27 | O[C@@H]1CCCC[C@H]1Nc1nnc(-c2ccc(C(F)(F)F)cc2CC(F)(F)F)c2cncn12 [Compound 282, (1R,2R)-2-({1-[2-(2,2,2-trifluoroethyl)-4-(trifluoromethyl)phenyl]imidazo[1,5-d][1,2,4]triazin-4-yl}amino)cyclohexan-1-ol] | < 1 nM
28 | COc1ccc(-c2nnc(NC3CCNC3=O)n3cncc23)c(OC(F)(F)F)c1 (centres unmarked) [Compound 284, 3-({1-[4-methoxy-2-(trifluoromethoxy)phenyl]imidazo[1,5-d][1,2,4]triazin-4-yl}amino)pyrrolidin-2-one] | 10 to 100 nM
29 | FC(F)(F)c1ccc(-c2nnc(Nc3cc[nH]n3)n3cncc23)c(C(F)(F)F)c1 [Compound 285, 1-[2,4-bis(trifluoromethyl)phenyl]-N-(1H-pyrazol-3-yl)imidazo[1,5-d][1,2,4]triazin-4-amine] | 10 to 100 nM
30 | Cc1ccc(-c2nnc(N[C@@H]3CCCC[C@H]3O)n3cncc23)c(CC(F)(F)F)c1 [Compound 286, (1R,2R)-2-({1-[4-methyl-2-(2,2,2-trifluoroethyl)phenyl]imidazo[1,5-d][1,2,4]triazin-4-yl}amino)cyclohexan-1-ol] | 1 to 10 nM
31 | O=C1NCCC1Nc1nnc(-c2ccc(Cl)cc2OC(F)(F)F)c2cncn12 (centres unmarked) [Compound 287, 3-({1-[4-chloro-2-(trifluoromethoxy)phenyl]imidazo[1,5-d][1,2,4]triazin-4-yl}amino)pyrrolidin-2-one] | 1 to 10 nM
32 | Cc1ccc(-c2nnc(NC3CCNC3=O)n3cncc23)c(CC(F)(F)F)c1 (centres unmarked) [Compound 288, 3-({1-[4-methyl-2-(2,2,2-trifluoroethyl)phenyl]imidazo[1,5-d][1,2,4]triazin-4-yl}amino)pyrrolidin-2-one] | 1 to 10 nM
33 | CN1CC[C@@H](O)[C@@H](Nc2nnc(-c3ccc(C(F)(F)F)cc3CC(F)(F)F)c3cncn23)C1 [Compound 289, (3S,4R)-1-methyl-3-({1-[2-(2,2,2-trifluoroethyl)-4-(trifluoromethyl)phenyl]imidazo[1,5-d][1,2,4]triazin-4-yl}amino)piperidin-4-ol] | 1 to 10 nM
34 | O[C@H]1CCCC[C@@H]1Nc1nnc(-c2ccc(C(F)(F)F)cc2OC(F)(F)F)c2cncn12 [Compound 290] | 10 to 100 nM
35 | COc1ccc(-c2nnc(N[C@H]3C[C@@H](CO)C3)n3cncc23)c(OC(F)(F)F)c1 [Compound 291, [(1s,3s)-3-({1-[4-methoxy-2-(trifluoromethoxy)phenyl]imidazo[1,5-d][1,2,4]triazin-4-yl}amino)cyclobutyl]methanol] | 1 to 10 nM
